Structures can show the parent of a compound that is named as a salt.

In the first assay the target is T1, hGPR119 (Homo sapiens, UniProt Q8TDV5).
T1 construct: expressed in transfected cells; host or cells: CHO cells (CHO-hGPR119)
T1 sequence (Q8TDV5 1-335): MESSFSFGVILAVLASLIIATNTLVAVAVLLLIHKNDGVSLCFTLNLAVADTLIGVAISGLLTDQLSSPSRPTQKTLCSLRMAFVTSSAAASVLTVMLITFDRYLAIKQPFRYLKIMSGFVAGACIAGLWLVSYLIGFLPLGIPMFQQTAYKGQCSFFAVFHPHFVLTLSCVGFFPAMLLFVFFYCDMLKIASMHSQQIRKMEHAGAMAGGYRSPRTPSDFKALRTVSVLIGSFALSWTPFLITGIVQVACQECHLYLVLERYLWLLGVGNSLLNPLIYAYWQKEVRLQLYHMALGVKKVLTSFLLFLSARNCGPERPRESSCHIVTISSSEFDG
Kind of assay: In vitro cyclic AMP assay (Cisbio HTRF) in CHO-hGPR119 cells. In kind it is cell-based. Particulars: 1 h, cAMP, 1 μM, 60 min, read-out: Induction (% induction at 1 μM). The method, boiled down: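 Cells plated at 5000/well and exposed to test compound dose series for 60 min at room temperature with 1 mM IBMX and 0.5% DMSO (final). Lysis with anti-cAMP antibody/d2-cAMP detection reagents, 1 h at room temperature; HTRF read at 665/620 nm (337 nm excitation); EC50 from concentration-response.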
For `CCCc1cnc(N2CCC([C@H](C)Oc3nn4cc(-c5ccncc5F)nc4s3)CC2)nc1` [Compound 1082, 2-((S)-1-(1-(5-propylpyrimidin-2-yl)piperidin-4-yl)ethoxy)-6-(3-fluoropyridin-4-yl)imidazo[2,1-b][1,3,4]thiadiazole], the activation at 1 µM stood at 80%.

As to `C[C@H](Oc1nn2cc(-c3ccc(S(C)(=O)=O)cc3)nc2s1)C1CCN(c2ncc(Cl)cn2)CC1` [Compound 1083, 2-((S)-1-(1-(5-chloropyrimidin-2-yl)piperidin-4-yl)ethoxy)-6-(4-(methylsulfonyl)phenyl)imidazo[2,1-b][1,3,4]thiadiazole], the activation at 1 µM is 77%.

For `CCCc1cnc(N2CCC([C@H](C)Oc3nn4cc(-c5ccc(S(C)(=O)=O)cc5F)nc4s3)CC2)nc1` [Compound 1085, 2-((S)-1-(1-(5-propylpyrimidin-2-yl)piperidin-4-yl)ethoxy)-6-(2-fluoro-4-(methylsulfonyl)phenyl)imidazo[2,1-b][1,3,4]thiadiazole], the activation at 1 µM is 74%.

Regarding `CC(C)c1noc(N2CCC(C(C)Oc3nn4cc(-c5ccncc5C(F)(F)F)nc4s3)CC2)n1` (stereo not shown) [Compound 1092, 2-(1-(1-(3-isopropyl-1,2,4-oxadiazol-5-yl)piperidin-4-yl)ethoxy)-6-(3-(trifluoromethyl)pyridin-4-yl)imidazo[2,1-b][1,3,4]thiadiazole], the activation at 1 µM is 25%.

`CCc1cnc(N2CCC([C@H](C)Oc3nn4cc(-c5ccnc(OC)c5)nc4s3)CC2)nc1` [Compound 1093, 2-((S)-1-(1-(5-ethylpyrimidin-2-yl)piperidin-4-yl)ethoxy)-6-(2-methoxypyridin-4-yl)imidazo[2,1-b][1,3,4]thiadiazole]: the activation at 1 µM came to 75%.

In the case of `CCCc1cnc(N2CCC([C@H](C)Oc3nn4cc(-c5ccnc(OC)c5)nc4s3)CC2)nc1` [Compound 1094, 2-((S)-1-(1-(5-propylpyrimidin-2-yl)piperidin-4-yl)ethoxy)-6-(2-methoxypyridin-4-yl)imidazo[2,1-b][1,3,4]thiadiazole], the activation at 1 µM amounted to 68%.

With `COc1cnccc1-c1cn2nc(OC(C)C3CCN(c4nc(C(C)C)no4)CC3)sc2n1` (stereo not shown) [Compound 1095, 2-(1-(1-(3-isopropyl-1,2,4-oxadiazol-5-yl)piperidin-4-yl)ethoxy)-6-(3-methoxypyridin-4-yl)imidazo[2,1-b][1,3,4]thiadiazole], the activation at 1 µM came out at 8%.

Consider `C[C@H](Oc1nn2cc(-c3ccc(S(C)(=O)=O)cc3F)nc2s1)C1CCN(c2ncc(C(F)(F)F)cn2)CC1` [Compound 1098, 2-((S)-1-(1-(5-(trifluoromethyl)pyrimidin-2-yl)piperidin-4-yl)ethoxy)-6-(2-fluoro-4-(methylsulfonyl)phenyl)imidazo[2,1-b][1,3,4]thiadiazole], for which the activation at 1 µM turned out to be 68%.

In the case of `COc1cc(S(C)(=O)=O)ccc1-c1cn2nc(O[C@@H](C)C3CCN(c4nc(C(C)C)no4)CC3)sc2n1` [Compound 1103, 2-((S)-1-(1-(3-isopropyl-1,2,4-oxadiazol-5-yl)piperidin-4-yl)ethoxy)-6-(2-methoxy-4-(methylsulfonyl)phenyl)imidazo[2,1-b][1,3,4]thiadiazole], the activation at 1 µM came out at 9%.

As for `Cc1nc(S(C)(=O)=O)ccc1-c1cn2nc(O[C@@H](C)C3CCN(c4nc(C(C)C)no4)CC3)sc2n1` [Compound 1104, 2-((S)-1-(1-(3-isopropyl-1,2,4-oxadiazol-5-yl)piperidin-4-yl)ethoxy)-6-(2-methyl-6-(methylsulfonyl)pyridin-3-yl)imidazo[2,1-b][1,3,4]thiadiazole], the activation at 1 µM was 46%.

Take `CC(C)c1noc(N2CCC([C@@H](C)Oc3nn4cc(-c5ccc(-c6nnn[nH]6)cc5F)nc4s3)CC2)n1` [Compound 1105, 2-((R)-1-(1-(3-isopropyl-1,2,4-oxadiazol-5-yl)piperidin-4-yl)ethoxy)-6-(2-fluoro-4-(1H-tetrazol-5-yl)phenyl)imidazo[2,1-b][1,3,4]thiadiazole hydrochloride]: the activation at 1 µM was found to be 30%.

As to `CCOC(=O)N1CCC(C(C)Oc2nn3cc(-c4ccc(S(C)(=O)=O)cc4F)nc3s2)CC1` (stereo not shown) [Compound 1107, Ethyl 4-(1-(6-(2-fluoro-4-(methylsulfonyl)phenyl)imidazo[2,1-b][1,3,4]thiadiazol-2-yloxy)ethyl)piperidine-1-carboxylate], the activation at 1 µM is 67%.

For `CC(Oc1nn2cc(-c3ccc(S(C)(=O)=O)cc3F)nc2s1)C1CCN(C(=O)OC2(C)CC2)CC1` (stereo not shown) [Compound 1110, 1-methylcyclopropyl 4-(1-(6-(2-fluoro-4-(methylsulfonyl)phenyl)imidazo[2,1-b][1,3,4]thiadiazol-2-yloxy)ethyl)piperidine-1-carboxylate], the activation at 1 µM came to 71%.

For `CC(C)c1noc(N2CCC(C(C)Oc3nn4cc(-c5cncs5)nc4s3)CC2)n1` (stereo not shown) [Compound 1111, 2-(1-(1-(3-isopropyl-1,2,4-oxadiazol-5-yl)piperidin-4-yl)ethoxy)-6-(thiazol-5-yl)imidazo[2,1-b][1,3,4]thiadiazole], the activation at 1 µM turned out to be 63%.

Regarding `Cc1cc(S(C)(=O)=O)ccc1-c1cn2nc(O[C@@H](C)C3CCN(c4nc(C(C)C)no4)CC3)sc2n1` [Compound 1112, 2-((S)-1-(1-(3-isopropyl-1,2,4-oxadiazol-5-yl)piperidin-4-yl)ethoxy)-6-(2-methyl-4-(methylsulfonyl)phenyl)imidazo[2,1-b][1,3,4]thiadiazole], the activation at 1 µM came to 71%.

In the case of `CCOC(=O)N1CCC([C@H](C)Oc2nn3cc(-c4ccc(S(C)(=O)=O)cc4F)nc3s2)CC1` [Compound 1113, ethyl 4-((S)-1-(6-(2-fluoro-4-(methylsulfonyl)phenyl)imidazo[2,1-b][1,3,4]thiadiazol-2-yloxy)ethyl)piperidine-1-carboxylate], the activation at 1 µM worked out at 68%.

Turning to `CC(C)c1noc(C2CCN(c3nc(-c4ccc(S(C)(=O)=O)cc4)ns3)CC2)n1` [Compound 1114, 4-(3-isopropyl-1,2,4-oxadiazol-5-yl)-1-(3-(4-(methylsulfonyl)phenyl)-1,2,4-thiadiazol-5-yl)piperidine], the activation at 1 µM was found to be 4%.

As for `CC(C)c1noc(N2CCC(C(C)Oc3nc(-c4ccc(S(C)(=O)=O)cc4)ns3)CC2)n1` (stereo not shown) [Compound 1115, 4-(1-(3-(4-(methylsulfonyl)phenyl)-1,2,4-thiadiazol-5-yloxy)ethyl)-1-(3-isopropyl-1,2,4-oxadiazol-5-yl)piperidine], the activation at 1 µM came out at 14%.

Turning to `CC(C)c1noc(N2CCC(Oc3nc(-c4ccc(S(C)(=O)=O)cc4)ns3)CC2)n1` [Compound 1116, 4-(3-(4-(methylsulfonyl)phenyl)-1,2,4-thiadiazol-5-yloxy)-1-(3-isopropyl-1,2,4-oxadiazol-5-yl)piperidine], the activation at 1 µM worked out at 36%.

Take `CC(C)c1noc(N2CCC(COc3nc(-c4ccc(S(C)(=O)=O)cc4)ns3)CC2)n1` [Compound 1117, 4-((3-(4-(methylsulfonyl)phenyl)-1,2,4-thiadiazol-5-yloxy)methyl)-1-(3-isopropyl-1,2,4-oxadiazol-5-yl)piperidine]: the activation at 1 µM stood at 2%.

For `CC(C)c1noc(N2CCC(Oc3nsc(-c4ccc(S(C)(=O)=O)nc4)n3)CC2)n1` [Compound 1119, 5-(3-(1-(3-isopropyl-1,2,4-oxadiazol-5-yl)piperidin-4-yloxy)-1,2,4-thiadiazol-5-yl)-2-(methylsulfonyl)pyridine], the activation at 1 µM is 7%.

As for `CC(C)c1noc(N2CCC(COc3nsc(-c4ccc(S(C)(=O)=O)nc4)n3)CC2)n1` [Compound 1120, 5-(3-((1-(3-isopropyl-1,2,4-oxadiazol-5-yl)piperidin-4-yl)methoxy)-1,2,4-thiadiazol-5-yl)-2-(methylsulfonyl)pyridine], the activation at 1 µM was 15%.

Turning to `CCCc1cnc(N2CCC(Oc3nc(-c4ccc(S(C)(=O)=O)nc4)ns3)CC2)nc1` [Compound 1123, 2-(4-(3-(6-(methylsulfonyl)pyridin-3-yl)-1,2,4-thiadiazol-5-yloxy)piperidin-1-yl)-5-propylpyrimidine], the activation at 1 µM turned out to be 18%.

Regarding `CC(C)c1noc(N2CCC(Oc3nc(N(C)c4ccc(S(C)(=O)=O)nc4)ns3)CC2)n1` [Compound 1124, N-(5-(1-(3-isopropyl-1,2,4-oxadiazol-5-yl)piperidin-4-yloxy)-1,2,4-thiadiazol-3-yl)-N-methyl-6-(methylsulfonyl)pyridin-3-amine], the activation at 1 µM came to 6%.

As to `CC(C)c1noc(N2CCC(Nc3nc(-c4ccc(S(C)(=O)=O)nc4)ns3)CC2)n1` [Compound 1126, 1-(3-isopropyl-1,2,4-oxadiazol-5-yl)-N-(3-(6-(methylsulfonyl)pyridin-3-yl)-1,2,4-thiadiazol-5-yl)piperidin-4-amine], the activation at 1 µM stood at 7%.

For the molecule `CC(C)c1noc(N2CCC(N(C)c3nc(-c4ccc(S(C)(=O)=O)nc4)ns3)CC2)n1` [Compound 1127, 1-(3-isopropyl-1,2,4-oxadiazol-5-yl)-N-methyl-N-(3-(6-(methylsulfonyl)pyridin-3-yl)-1,2,4-thiadiazol-5-yl)piperidin-4-amine], the activation at 1 µM is 4%.

Staying with this assay, now noted: cAMP, class symbols, legend not given.
As for `CCCc1cnc(N2CCC([C@H](C)Oc3nn4cc(-c5ccc(S(C)(=O)=O)cc5F)nc4s3)CC2)nc1` [Compound 1085, 2-((S)-1-(1-(5-propylpyrimidin-2-yl)piperidin-4-yl)ethoxy)-6-(2-fluoro-4-(methylsulfonyl)phenyl)imidazo[2,1-b][1,3,4]thiadiazole], the EC50 entry was “A++”.

Take `CCOC(=O)N1CCC([C@H](C)Oc2nn3cc(-c4ccc(S(C)(=O)=O)cc4F)nc3s2)CC1` [Compound 1113, ethyl 4-((S)-1-(6-(2-fluoro-4-(methylsulfonyl)phenyl)imidazo[2,1-b][1,3,4]thiadiazol-2-yloxy)ethyl)piperidine-1-carboxylate]: the EC50 entry is reported as “A+”.

(Values after US10208030B2, “GPR119 agonist compounds” (Mankind Pharma Ltd., priority 2016, dated 2019).)
